What was measured:
cyclin D1/cdk 4 enzyme = target: T1, cyclin D1/cdk 4 enzyme (Homo sapiens, UniProt P11802); experiment: CDK4 ELISA kinase assay (phospho-Rb ser 795 detection); type: biochemical; conditions: In Vitro Enzyme Assay, cyclin D1/cdk 4, read-out: CDK4 IC50
T1 construct: made in house; host or cells: Sf9 insect cells, recombinant baculovirus
Procedure, shortened: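 Wells were coated overnight with GST-Rb C-terminal fragment, then blocked. Compound (10 ug/ml final) and cyclin/CDK enzyme from baculovirus-infected Sf9 cells with 200 μM ATP reacted 1 h at 30° C. Ser795 phosphorylation was detected by ELISA at 450 nm.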

BT474 = experiment: Cytotoxicity assay (SRB), BT474; type: cell-based; conditions: Homo sapiens, BT-474, 144 h, BT474 cells, 6 days, SRB; read-out: In Vitro Cellular Activity IC50 BT474
Method: (§1) BT474, HCT-116, LoVo and MCF-7 were maintained under 7% CO2 in RPMI 1640 medium supplemented with 10% fetal bovine serum and 50 µg/ml gentamicin.
(§2) Cells were plated in 96-well microtiter dishes (12000 cells/well for BT474, 4000 cells/well for HCT-116, 6000 cells/well for LoVo and 6000 cells/well for MCF-7) in RPMI 1640 medium containing 5% fetal bovine serum and 50 µg/ml gentamicin. The cells were allowed to incubate overnight at 37° C., 7% CO2. Compound dilutions were prepared using the same medium. HCT-116, LoVo and MCF-7 cells were cultured for three days and BT474 cells were cultured for 6 days, in the presence of each compound dilution. Untreated cells were included as controls. The percentage of surviving cells was determined using a protein binding dye (sulforhodamineB, SRB) assay. Cellular protein was precipitated in each well by the addition of 0.05 ml of 50% cold trichloroacetic acid (TCA). After 1 hour, the plates were washed extensively in dH2O and dried. The sulforhodamineB dye solution (0.08 mL of 0.4% SRB in 1% acetic acid) was added to each well, kept at room temperature for ten minutes, then washed in 1% acetic acid and dried. The dye was dissolved in 10 mM Tris-HCl (150 uL) and the absorbency read at 540 nm.

HCT-116 = experiment: Cytotoxicity assay (SRB), HCT-116; type: cell-based; conditions: Homo sapiens, HCT-116, 72 h, HCT116 cells, 3 days, SRB; read-out: In Vitro Cellular Activity IC50 HCT116
Method: as §1, §2

LoVo = experiment: Cytotoxicity assay (SRB), LoVo; type: cell-based; conditions: Homo sapiens, LoVo, 72 h, LoVo cells, 3 days, SRB; read-out: In Vitro Cellular Activity IC50 LOVO
Method: as §1, §2

MCF-7 = experiment: Cytotoxicity assay (SRB), MCF-7; type: cell-based; conditions: Homo sapiens, MCF7, 72 h, MCF-7 cells, 3 days, SRB; read-out: In Vitro Cellular Activity IC50 MCF-7
Method: as §1, §2

T1 sequence (P11802 whole entry, species assumed): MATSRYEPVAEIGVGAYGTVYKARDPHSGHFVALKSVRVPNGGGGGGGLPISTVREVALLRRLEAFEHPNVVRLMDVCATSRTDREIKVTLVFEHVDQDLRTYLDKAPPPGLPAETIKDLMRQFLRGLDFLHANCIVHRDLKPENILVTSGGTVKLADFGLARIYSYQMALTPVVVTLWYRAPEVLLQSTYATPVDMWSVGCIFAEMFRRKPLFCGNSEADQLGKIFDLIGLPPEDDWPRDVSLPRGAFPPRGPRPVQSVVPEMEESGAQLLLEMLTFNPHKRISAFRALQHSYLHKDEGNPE
T1 sequence (P24385 whole entry partner, species assumed): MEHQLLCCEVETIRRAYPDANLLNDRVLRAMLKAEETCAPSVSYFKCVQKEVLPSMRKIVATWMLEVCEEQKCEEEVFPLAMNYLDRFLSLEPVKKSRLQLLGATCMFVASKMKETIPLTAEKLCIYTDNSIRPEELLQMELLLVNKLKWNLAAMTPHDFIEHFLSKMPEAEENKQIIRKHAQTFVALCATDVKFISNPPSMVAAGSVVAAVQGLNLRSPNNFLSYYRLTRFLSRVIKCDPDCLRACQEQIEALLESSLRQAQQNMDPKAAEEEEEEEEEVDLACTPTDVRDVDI

| SMILES | IC50 (cyclin D1/cdk 4 enzyme) [µM] | IC50 (BT474) [µM] | IC50 (HCT-116) [µM] | IC50 (LoVo) [µM] | IC50 (MCF-7) [µM] |
| --- | --- | --- | --- | --- | --- |
| CC(=O)c1ccccc1-c1ccc2c(c1)C(=CNc1ccc(CC#N)cc1)C(=O)NC2=O [Example 711, (4-{[6-(2-Acetyl-phenyl)-1,3-dioxo-2,3-dihydro-1H-isoquinolin-4-ylidenemethyl]-amino}-phenyl)-acetonitrile] | 9.8 | 46.7 | > 50 | > 50 | > 50 |
| CN1CCN(c2ccc(NC=C3C(=O)NC(=O)c4ccc(C=Cc5ccc(C(F)(F)F)cc5)cc43)cc2)CC1 [Example 729, 4-{[4-(4-Methyl-piperazin-1-yl)-phenylamino]-methylene}-6-[2-(4-trifluoromethyl-phenyl)-vinyl]-4H-isoquinoline-1,3-dione] | 10.9 | 4.7 | 1.4 | 17.9 | 2.1 |
| N#CCc1ccc(NC=C2C(=O)NC(=O)c3ccc(-c4ccc(F)cc4)cc32)cc1 [Example 704, (4-{[6-(4-Fluoro-phenyl)-1,3-dioxo-2,3-dihydro-1H-isoquinolin-4-ylidenemethyl]-amino}-phenyl)-acetonitrile] | 7 | 26.4 | > 50 | > 50 | 28.6 |
| Cc1cccc(-c2ccc3c(c2)C(=CNc2ccc(CC#N)cc2)C(=O)NC3=O)c1 [Example 716, {4-[(1,3-Dioxo-6-m-tolyl-2,3-dihydro-1H-isoquinolin-4-ylidenemethyl)-amino]-phenyl}-acetonitrile] | 9.3 | > 50 | > 50 | > 50 | 27.2 |
| NS(=O)(=O)c1ccc(CNC=C2C(=O)NC(=O)c3ccc(-c4cc5ccccc5o4)cc32)cc1 [Example 634, 4-{[(6-Benzofuran-2-yl-1,3-dioxo-2,3-dihydro-1H-isoquinolin-4-ylidenemethyl)-amino]-methyl}-benzenesulfonamide] | 9.9 | 47.8 | 19.1 | 8.5 | > 50 |
| N=C(N)c1ccc(NC=C2C(=O)NCc3cc(Cl)ccc32)cc1 [Example 857, 4-[(7-Chloro-3-oxo-2,3-dihydro-1H-isoquinolin-4-ylidenemethyl)-amino]-benzamidine] | 18.5 | 24 | 43.1 | > 50 | > 50 |
| COc1ccc(-c2ccc3c(c2)C(=CNc2ccc(CC#N)cc2)C(=O)NC3=O)cc1 [Example 701, (4-{[6-(4-Methoxy-phenyl)-1,3-dioxo-2,3-dihydro-1H-isoquinolin-4-ylidenemethyl]-amino}-phenyl)-acetonitrile] | 6.6 | 39.6 | > 50 | > 50 | 34.4 |
| CN1CCN(c2ccc(NC=C3C(=O)NC(=O)c4ccc(-c5ccccc5Cl)cc43)cc2)CC1 [Example 691, 6-(2-Chloro-phenyl)-4-{[4-(4-methyl-piperazin-1-yl)-phenylamino]-methylene}-4H-isoquinoline-1,3-dione] | 8.3 | 3 | 1.3 | 2.2 | 2.8 |
| CN1CCN(c2ccc(NC=C3C(=O)NC(=O)c4ccc(-c5cc6ccccc6o5)cc43)cc2)CC1 [Example 669, 6-Benzofuran-2-yl-4-{[4-(4-methyl-piperazin-1-yl)-phenylamino]-methylene}-4H-isoquinoline-1,3-dione] | 9.6 | 2 | 2.9 | 20.6 | 2.9 |
| O=C1NC(=O)c2ccc(C=Cc3ccc4ccccc4c3)cc2C1=CNCc1ccc(O)c(O)c1 [Example 661, 4-[(3,4-Dihydroxy-benzylamino)-methylene]-6-(2-naphthalen-2-yl-vinyl)-4H-isoquinoline-1,3-dione] | 5.5 | 36.9 | > 50 | > 50 | 37.5 |

The next lines start with results.

| IC50 (cyclin D1/cdk 4 enzyme) [µM] | SMILES | IC50 (BT474) [µM] | IC50 (HCT-116) [µM] | IC50 (LoVo) [µM] | IC50 (MCF-7) [µM] |
| --- | --- | --- | --- | --- | --- |
| 2.4 | NS(=O)(=O)c1ccc(CNC=C2C(=O)NC(=O)c3ccc(C=Cc4ccccn4)cc32)cc1 [Example 652, 4-({[1,3-Dioxo-6-(2-pyridin-2-yl-vinyl)-2,3-dihydro-1H-isoquinolin-4-ylidenemethyl]-amino}-methyl)-benzenesulfonamide] | 28.5 | > 50 | > 50 | 27 |
| 1.3 | Cc1ccc(-c2ccc3c(c2)C(=CNCc2ccc(S(N)(=O)=O)cc2)C(=O)NC3=O)cc1 [Example 752, 4-{[(1,3-Dioxo-6-p-tolyl-2,3-dihydro-1H-isoquinolin-4-ylidenemethyl)-amino]-methyl}-benzenesulfonamide] | 33.3 | 14.8 | 33.4 | 18.5 |
| 2.9 | CN1CCN(c2ccc(NC=C3C(=O)NC(=O)c4ccc(-c5cccc(C=CC(=O)O)c5)cc43)cc2)CC1 [Example 699, 3-[3-(4-{[4-(4-Methyl-piperazin-1-yl)-phenylamino]-methylene}-1,3-dioxo-1,2,3,4-tetrahydro-isoquinolin-6-yl)-phenyl]-acrylic acid] | > 50 | 22.9 | > 50 | > 50 |
| 3.4 | COc1ccc(-c2ccc3c(c2)C(=CNc2ccc(N4CCN(C)CC4)cc2)C(=O)NC3=O)cc1 [Example 682, 6-(4-Methoxy-phenyl)-4-{[4-(4-methyl-piperazin-1-yl)-phenylamino]-methylene}-4H-isoquinoline-1,3-dione] | 2.5 | 1.5 | 5.2 | 4.4 |
| 2.2 | O=C1NC(=O)c2ccc(-c3csc4ccccc34)cc2C1=CNCc1ccc(O)c(O)c1 [Example 645, 6-Benzo[b]thiophen-3-yl-4-[(3,4-dihydroxy-benzylamino)-methylene]-4H-isoquinoline-1,3-dione] | 15.5 | 9 | 7.2 | 8.8 |
| 3.4 | NS(=O)(=O)c1ccc(CNC=C2C(=O)NC(=O)c3ccc(-c4csc5ccccc45)cc32)cc1 [Example 636, 4-{[(6-Benzo[b]thiophen-3-yl-1,3-dioxo-2,3-dihydro-1H-isoquinolin-4-ylidenemethyl)-amino]-methyl}-benzenesulfonamide] | 39.7 | 31.2 | 15.8 | 18.4 |
| 5.5 | N#CCc1ccc(NC=C2C(=O)NC(=O)c3ccc(-c4ccc5[nH]ccc5c4)cc32)cc1 [Example 629, (4-{[6-(1H-Indol-5-yl)-1,3-dioxo-2,3-dihydro-1H-isoquinolin-4-ylidenemethyl]-amino}-phenyl)-acetonitrile] | > 50 | > 50 | > 50 | 50 |
| 3 | N#CCc1ccc(NC=C2C(=O)NC(=O)c3ccc(C=Cn4ccnc4)cc32)cc1 [Example 651, (4-{[6-(2-Imidazol-1-yl-vinyl)-1,3-dioxo-2,3-dihydro-1H-isoquinolin-4-ylidenemethyl]-amino}-phenyl)-acetonitrile] | > 50 | > 50 | > 50 | 37.1 |
| 3.1 | NS(=O)(=O)c1ccc(CNC=C2C(=O)NC(=O)c3ccc(-c4ccc5ccccc5c4)cc32)cc1 [Example 632, 4-{[(6-Naphthalen-2-yl-1,3-dioxo-2,3-dihydro-1H-isoquinolin-4-ylidenemethyl)-amino]-methyl}-benzenesulfonamide] | > 50 | > 50 | 44.6 | 17.3 |
| 3.6 | CN1CCN(c2ccc(NC=C3C(=O)NC(=O)c4ccc(C=CCO)cc43)cc2)CC1 [Example 724, 6-(3-Hydroxy-propenyl)-4-{[4-(4-methyl-piperazin-1-yl)-phenylamino]-methylene}-4H-isoquinoline-1,3-dione] | 16.9 | 5.8 | 10.4 | 14.8 |
| 3.7 | N#CCc1ccc(NC=C2C(=O)NC(=O)c3ccc(-c4cc5ccccc5o4)cc32)cc1 [Example 626, {4-[(6-Benzofuran-2-yl-1,3-dioxo-2,3-dihydro-1H-isoquinolin-4-ylidenemethyl)-amino]-phenyl}-acetonitrile] | > 50 | > 50 | > 50 | 34.1 |
